From the NIST ThermoML archive (doi:10.1016/j.fluid.2005.03.030)

Experiment: xn = mol fraction of the nth substance listed
Details: Liquid, Falling body viscometer

COCCOCCOCCOCCOC [2,5,8,11,14-pentaoxapentadecane] + FCC(F)(F)F
viscosity [mPa·s]
Details	10000 kPa	20000 kPa	30000 kPa	40000 kPa	50000 kPa	60000 kPa	70000 kPa	80000 kPa	90000 kPa	100000 kPa
293.15 K, x2 = 0.2769	3.132	3.378	3.669	3.992	4.341	4.71	5.095	5.495	5.907	6.329
293.15 K, x2 = 0.4433	2.335	2.537	2.765	3.014	3.282	3.568	3.871	4.191	4.527	4.877
293.15 K, x2 = 0.6333	1.514	1.679	1.851	2.031	2.219	2.414	2.617	2.827	3.045	3.269
293.15 K, x2 = 0.8797	0.557	0.613	0.671	0.733	0.796	0.863	0.932	1.003	1.077	1.154
313.15 K, x2 = 0.2769	2.001	2.197	2.395	2.601	2.816	3.043	3.282	3.535	3.803	4.088
313.15 K, x2 = 0.4433	1.527	1.674	1.824	1.978	2.14	2.31	2.49	2.68	2.881	3.094
313.15 K, x2 = 0.6333	1.046	1.151	1.26	1.374	1.493	1.616	1.745	1.878	2.016	2.159
313.15 K, x2 = 0.8797	0.412	0.46	0.506	0.553	0.6	0.647	0.695	0.744	0.794	0.845
333.15 K, x2 = 0.2769	1.406	1.533	1.664	1.8	1.941	2.086	2.236	2.391	2.549	2.712
333.15 K, x2 = 0.4433	1.097	1.195	1.297	1.402	1.512	1.624	1.741	1.861	1.984	2.111
333.15 K, x2 = 0.6333	0.774	0.845	0.922	1.003	1.087	1.173	1.26	1.349	1.438	1.529
333.15 K, x2 = 0.8797	0.321	0.364	0.405	0.444	0.483	0.522	0.561	0.6	0.64	0.681
353.15 K, x2 = 0.2769	1.038	1.133	1.229	1.328	1.431	1.539	1.653	1.773	1.9	2.035
353.15 K, x2 = 0.4433	0.834	0.908	0.984	1.064	1.147	1.233	1.323	1.415	1.51	1.609
353.15 K, x2 = 0.6333	0.609	0.665	0.725	0.788	0.854	0.921	0.99	1.061	1.132	1.205
353.15 K, x2 = 0.8797	0.256	0.299	0.336	0.37	0.404	0.436	0.469	0.501	0.533	0.565
373.15 K, x2 = 0.2769	0.832	0.907	0.986	1.069	1.156	1.247	1.342	1.441	1.545	1.654
373.15 K, x2 = 0.4433	0.662	0.72	0.783	0.85	0.921	0.994	1.069	1.147	1.226	1.307
373.15 K, x2 = 0.6333	0.471	0.524	0.577	0.631	0.685	0.739	0.794	0.849	0.904	0.96
373.15 K, x2 = 0.8797	0.195	0.234	0.268	0.3	0.33	0.36	0.39	0.419	0.448	0.478
